Patent US20030171377A1, “Antidiabetic agents” (priority 2001, published 2003)

Assays:
PPAR gamma = molecular target: T1, PPAR gamma (Mus musculus, UniProt P37238); experiment: HepG2-mGAMMA assay (PPAR gamma); type: cell-based; conditions: HepG2 cells
T1 construct: expressed in transfected cells; host or cells: HepG2
T1 sequence (P37238 1-505): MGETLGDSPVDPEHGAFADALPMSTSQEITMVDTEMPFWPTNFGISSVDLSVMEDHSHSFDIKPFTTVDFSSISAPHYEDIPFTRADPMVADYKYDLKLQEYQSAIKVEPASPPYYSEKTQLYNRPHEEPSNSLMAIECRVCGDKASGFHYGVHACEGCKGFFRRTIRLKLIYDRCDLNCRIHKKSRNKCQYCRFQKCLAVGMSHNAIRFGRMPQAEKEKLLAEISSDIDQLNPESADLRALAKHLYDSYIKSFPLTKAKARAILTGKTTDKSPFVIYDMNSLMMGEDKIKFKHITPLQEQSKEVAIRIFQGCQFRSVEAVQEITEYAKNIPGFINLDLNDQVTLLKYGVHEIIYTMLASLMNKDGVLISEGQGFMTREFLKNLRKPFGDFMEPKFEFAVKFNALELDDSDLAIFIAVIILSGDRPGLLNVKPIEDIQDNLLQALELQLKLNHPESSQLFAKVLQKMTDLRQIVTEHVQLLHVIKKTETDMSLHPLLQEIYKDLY

PPAR alpha = molecular target: T2, PPAR alpha (Homo sapiens, UniProt Q07869); experiment: HepG2-hALPHA assay (PPAR alpha); type: cell-based; conditions: HepG2 cells
T2 construct: expressed in transfected cells; host or cells: HepG2
T2 sequence (Q07869 1-468): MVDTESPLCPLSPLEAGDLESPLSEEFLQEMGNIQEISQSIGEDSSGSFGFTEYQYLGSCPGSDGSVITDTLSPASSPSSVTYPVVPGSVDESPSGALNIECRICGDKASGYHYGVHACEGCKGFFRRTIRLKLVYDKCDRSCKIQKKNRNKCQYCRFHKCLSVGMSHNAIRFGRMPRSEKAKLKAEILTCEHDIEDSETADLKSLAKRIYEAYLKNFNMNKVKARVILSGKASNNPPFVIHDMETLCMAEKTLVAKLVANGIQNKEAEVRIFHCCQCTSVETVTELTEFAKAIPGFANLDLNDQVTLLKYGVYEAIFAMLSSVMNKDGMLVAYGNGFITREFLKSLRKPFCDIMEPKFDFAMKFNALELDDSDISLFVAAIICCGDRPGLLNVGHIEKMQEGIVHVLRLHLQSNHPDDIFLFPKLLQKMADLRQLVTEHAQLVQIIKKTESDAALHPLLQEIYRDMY

Row | Structure (SMILES) | HepG2-mGamma Max. Res. % Rosi. (PPAR gamma) [% Rosi.] | HepG2-hAlpha Max. Res. % GW9578 (PPAR alpha) [% GW9578] | HepG2-hAlpha concentration of Max. Res. (uM, in brackets) (PPAR alpha) [µM]
1 | CN(CCOc1ccc(CC2SC(=O)NC2=O)cc1)c1ccccn1 (stereo not drawn) [Rosiglitazone] | 100.0 |  | 
2 | CCCCCCCN(CCc1ccc(SC(C)(C)C(=O)O)cc1)C(=O)Nc1ccc(F)cc1F [GW9578] |  | 100.0 | 1
